Values of other authors, collected in patent publication US7217837B2, “Method for producing organic acid” (Mitsubishi Chemical Corporation, priority 2002, dated 2007).

How the values were obtained:
[1] = Table 1; literature values
[2] = water, Table 1, literature values
[3] = Table 1; for pKa1: literature values (Pyne Organic Chemistry; Handbook of Chemistry and Physics); for pKa2: literature values

Structure (SMILES)	Isoelectric point pI [1]	Solubility at 25° C. [2] [g/100 gH2O]	pKa1 [3]	pKa2 [3]
NC(=O)C[C@H](N)C(=O)O [Asparagine]	5.41	3.11	2.02	
N[C@@H](CC(=O)O)C(=O)O [Aspartic acid]	2.98			
N[C@@H](CCC(=O)O)C(=O)O [Glutamic acid]	3.08			
NC(=O)CC[C@H](N)C(=O)O [Glutamine]		3.6		
O=C(O)CCCC(=O)O [Glutaric acid]			4.31	5.41
N[C@@H](Cc1c[nH]cn1)C(=O)O [Histidine]	7.64	4.29		
CC[C@H](C)[C@H](N)C(=O)O [Isoleucine]	6.04	4.117	2.32	
CC(C)C[C@H](N)C(=O)O [Leucine]		2.19		
O=C(O)CC(O)C(=O)O (stereo not drawn) [Malic acid]			3.40	5.11
CSCC[C@H](N)C(=O)O [Methionine]	5.74	3.35	2.28	
N[C@@H](Cc1ccccc1)C(=O)O [Phenylalanine]	5.91	2.965	2.58	
O=C(O)CCCCCCC(=O)O [Suberic acid]			4.52	
N[C@@H](Cc1c[nH]c2ccccc12)C(=O)O [Tryptophan]	5.88	1.14	2.38	
N[C@@H](Cc1ccc(O)cc1)C(=O)O [Tyrosine]	5.66			
CC(C)[C@H](N)C(=O)O [Valine]	6	8.85	2.29	
